Reference: US8119640B2, “Hedgehog pathway antagonists methods of use” (The Board of Trustees of the Leland Stanford Junior …, priority 2008, dated 2012)
Like-named read-outs stand apart in the source and are kept apart here.

What was measured:
Hh pathway [1] = assay: Shh-EGFP assay for Hh pathway activation; type: cell-based; settings: Shh-N-conditioned medium; HPIs at ten-fold their Shh-LIGHT2 IC50 or 30 μM, whichever lower
Method: Shh-EGFP assay for Hh pathway activation. A Gli-dependent enhanced green fluorescent protein reporter (Shh-EGFP) was generated by excising firefly luciferase cDNA from the 8XGliBs vector using NcoI/Hpal, and ligating in EGFP cDNA excised from the pEGFP-C1 vector (Clontech) by NcoI/Af/II digestion. […] The cells were grown to confluency and treated with DMEM containing 0.5% CS, 100 U/mL penicillin, 0.1 mg/mL streptomycin, and 5% Shh-N-conditioned medium for 30 h. Following Shh-N treatment, the adherent cultures were dissociated into single cells with 0.05% Trypsin-EDTA (300 μL/well; Invitrogen) for 5 min. The cells were then suspended in 1 mL of PBS containing 1% CS and sorted on a BD FACSAria (excitation: 488 nm; emission: 530/30 nm) to enrich for cells expressing EGFP in a Shh-N-responsive manner. […] To identify Shh-EGFP clones with maximum Shh-N-responsiveness, individual lines were seeded into 24-well plates (45,000 cell/well) and cultured for 48 h. The cells were then treated with DMEM containing 0.5% CS, 100 U/mL pencillin, 0.1 mg/mL streptomycin or the culture medium plus 5% Shh-N-conditioned medium. After 30 h, the adherent cultures were treated with 0.05% trypsin-EDTA (150 μL/well; Invitrogen) for 5 min to dissociate them into single cells. The cells were then resuspended in 500 μL of PBS containing 1% CS and analyzed on a BD FACSCalibur (excitation: 488 nm; emission: 530/30 nm). 10,000 cells were used to assess EGFP expression levels as a measure of Hh pathway activation, and the data was analyzed using FlowJo software (Tree Star). Clones with low basal EGFP levels and maximum Shh-Ninduced EGFP expression were selected for further use. To assess the inhibitory activities of the HPIs in the Shh-EGFP cells, a clonal line with maximum Shh-responsiveness was cultured in 24-well plates as described above. […] The resulting EGFP levels were then evaluated by FACS and quantified using the FlowJo software.

Smo = Smo (Mus musculus, UniProt P56726); assay: BODIPY-cyclopamine/Smo binding assay; set-up: expressed in transfected cells; host or cells: HEK-293T; species or system murine; settings: 5 nM BODIPY-cyclopamine, Smo-overexpressing HEK-293T cells, HPIs 20 μM
Method: BODIPY-cyclopamine/Smo binding assay. Smo-binding assays were conducted with BODIPY-cyclopamine and Smooverexpressing and HEK-293T cells as previously described, using a CMV-promoter based SV40 origin-containing expression construct for Smo-Myc3 (murine Smo containing three consecutive Myc epitopes at the C-terminus). […] The cells were cultured until they reached 55 to 65% confluency (14-18 h), after which they were transfected with the Smo-Myc3 expression construct and FuGENE (Roche) according to the manufacturer's protocols. 24 h after transfection, the cells were washed with phosphate-buffered saline (PBS) and cultured in DMEM containing 0.5% FBS, 5 nM BODIPY-cyclopamine, and individual HPIs (20 μM). After 30 min, 10 μM Hoescht 33342 was added to each well, and the HPIs were incubated with the cells for an additional 60 min. The cells were then washed two times with PBS buffer, mounted in Prolong Gold (Invitrogen) and immediately imaged using a DM4500B compound microscope (Leica).

Hh pathway [2] = assay: Shh-LIGHT2 assay for Hh pathway activation (Gli-dependent firefly luciferase); type: cell-based
Method: Shh-LIGHT2 assay for Hh pathway activation and library screening conditions. h-N-conditioned medium was prepared as previously described. […] For 96-well plate assays, Shh-LIGHT2 cells were seeded into each plate (10,000 cells/well) and cultured to confluency. The Shh-LIGHT2 cells were then grown in DMEM containing 0.5% CS, 100 U/mL penicillin, 0.1 mg/mL streptomycin, either 5% Shh-N-conditioned medium or 500 nM SAG, and various concentrations of the HPIs. After the cells were cultured for another 30 h, the resulting firefly and Renilla luciferase activities were measured using a Dual Luciferase Reporter kit (Promega) and a Veritas microplate luminometer (Turner Biosystems).
When the cells reached >90% confluency, they were removed by trypsinization and diluted to a final volume of 50 mL medium. This cell suspension was then plated into clear-bottom, white-walled 384-well plates using a Titertek Multidrop dispenser (50 μL/well) and the cells were cultured until they reached confluency (3-4 days). […] The plates were then placed into an automated Staccato system (Caliper Life Sciences), which includes an automated CO2 incubator. An automated protocol was then run, in 3 which a Multidrop dispenser added 10 μL of a SAG solution in 0.5% CS medium (final SAG concentration of 500 nM) to columns 1-22 and 100 nL of each compound solution was added to the plates using a V&P Scientific pin tool, resulting in a final compound screening concentration of 10 μM. The SAG-free wells were used as negative controls. After 28-32 h, the assay medium was manually removed and the plates were frozen. To assay the firefly luciferase activities, the plates were thawed and placed into a Twister II stacker in the Staccato system. Bright-Glo luciferase substrate (Promega) was added by the Multidrop dispenser and the plates were analyzed on an Analyst GT microplate reader (2 min in the dark, 0.2 sec integration/well; Molecular Devices). Hits were defined as compounds that reduce the firefly luciferase signal by at least 50% compared to inhibitor-free controls. Primary hits were then re-tested in duplicate in an eight-point, 1:1 serially diluted doseresponse curve with a starting concentration of 20 μM. In these experiments, the median inhibitory concentration (IC50) for both firefly and Renilla luciferase were determined using a Dual-Glo kit (Promega).

Hh pathway [3] = assay: Su(fu)-/- fibroblasts assay for Hh pathway activation; type: cell-based; settings: for % Inhibition Su(fu)-/- MEFs: Gli-dependent firefly luciferase, 15 μM HPI-1, 20 μM HPI-2, 30 μM HPI-3, 30 μM HPI-4
Method: Su(fu)^−/− fibroblasts assay for Hh pathway activation. […] After 24 h, the cells were transfected with Fugene HD (Roche), 8xGliBS-FL (95 ng/well), phRLSV40 (5 ng/well; Promega), and pEGFP-C1 (300 ng/well as a carrier; Clontech) according to the manufacturer's protocols. […] The resulting firefly and Renilla luciferase activities were measured using a dual luciferase kit and Veritas microplate luminometer.

[4] = Shh Light2, stimulated with 500 nM SAG, read-out: IC50 (uM) SAG/Shh-LIGHT2 cells
[5] = Shh Light2, stimulated with Shh-N-conditioned medium, read-out: IC50 (uM) Shh/Shh-LIGHT2 cells

Chain of Smo (P56726 33-793): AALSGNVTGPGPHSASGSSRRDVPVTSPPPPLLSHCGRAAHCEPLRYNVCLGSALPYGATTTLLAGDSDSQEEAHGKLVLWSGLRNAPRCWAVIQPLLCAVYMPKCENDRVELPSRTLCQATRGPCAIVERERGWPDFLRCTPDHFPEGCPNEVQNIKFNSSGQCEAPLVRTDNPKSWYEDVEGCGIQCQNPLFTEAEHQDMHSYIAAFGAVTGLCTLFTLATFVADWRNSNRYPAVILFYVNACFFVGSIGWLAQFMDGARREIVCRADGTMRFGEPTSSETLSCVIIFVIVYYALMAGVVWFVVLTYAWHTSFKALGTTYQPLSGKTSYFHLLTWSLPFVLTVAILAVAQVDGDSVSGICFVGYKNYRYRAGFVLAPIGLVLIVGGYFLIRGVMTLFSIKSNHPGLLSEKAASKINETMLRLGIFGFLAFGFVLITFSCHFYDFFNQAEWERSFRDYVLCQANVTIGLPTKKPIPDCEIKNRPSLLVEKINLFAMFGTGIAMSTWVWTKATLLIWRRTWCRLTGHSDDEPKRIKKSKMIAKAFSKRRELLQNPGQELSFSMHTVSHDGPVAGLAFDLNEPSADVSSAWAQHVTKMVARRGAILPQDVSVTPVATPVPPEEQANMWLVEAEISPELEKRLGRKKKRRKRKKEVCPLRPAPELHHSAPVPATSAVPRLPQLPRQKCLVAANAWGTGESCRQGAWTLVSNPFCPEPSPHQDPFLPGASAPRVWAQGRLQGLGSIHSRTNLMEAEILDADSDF

Row | IC50 (Hh pathway [2]; SAG-stimulated Shh-LIGHT2 cells, firefly luciferase, read-out: median inhibitory concentrations (IC50s) in the screen) [µM] | % Inhibition Su(fu)-/- MEFs (Hh pathway [3]) [%] | Structure (SMILES) | % Inhibition Shh-GFP cells (Hh pathway [1]) [%] | BODIPY-cyclopamine competition (Smo) | IC50 (Hh pathway [2]; [4]) [µM] | IC50 (Hh pathway [2]; [5]) [µM] | Repression of constitutive Hh pathway activity in Su(fu)-/- fibroblasts (Hh pathway [3]) | % Inhibition Su(fu)-/- MEFs (Hh pathway [3]; 1440 min) [%]
1 | < 10 | 80.2 | COCCOC(=O)C1=C(C)NC2=C(C(=O)CC(c3ccccc3OC)C2)C1c1cccc(O)c1 (mixture of isomers) [Compound 8, 4-(3-Hydroxy-phenyl)-7-(2-methoxy-phenyl)-2-methyl-5-oxo-1,4,5,6,7,8-hexahydro-quinoline-3-carboxylic acid 2-methoxy-ethyl ester] | 86 | No | 1.5 | 1.3 | reduce Hh pathway activity in these cells to near-basal levels | –
2 | – | – | N#Cc1cc2c(nc1SCC(=O)Nc1nc3ccccc3s1)CCC2 [Compound 1] | 74.4 | No | 0.21 | 0.25 | – | 95.2
3 | – | – | CCCCNC(=N)C(C)c1ccc(CC(C)C)cc1 (centres unmarked) [Compound 2] | 80.9 | No | 2.2 | 1.6 | – | 6.26
4 | – | – | Cc1cc(/C=c2\sc3nc4ccccc4n3c2=O)c(C)n1C(C)C [Compound 3] | 60.5 | No | 0.55 | 0.5 | – | 92.8
5 | – | – | O=C(Nc1cccc2ccccc12)OC[C@@H]1CCCN2CCCC[C@H]12 [Compound 4] | 63 | No | 4 | 1.8 | – | −7.55
6 | – | – | CCC(C)NS(=O)(=O)c1ccc(Cc2ccc(S(=O)(=O)NC(C)CC)cc2)cc1 (centres unmarked) [Compound 5] | 84.9 | No | 0.8 | 1 | – | 45.7
7 | – | – | CCOC(=O)c1cc2c(=O)n3ccccc3nc2n(C(C)C)c1=NC(=O)c1cc(OC)cc(OC)c1 [Compound 6] | 84.5 | No | 1 | 1 | – | 90
8 | – | – | CCN1CCCC1CNC(=O)C1CCN(c2nc3c(C)cc(C)cc3s2)CC1 (centres unmarked) [Compound 7] | 90.5 | No | 1 | 1.6 | – | 32.1
9 | – | – | CCOC(=O)c1cn(-c2ccccc2)nc1-c1ccc(OC)c(OC)c1 [Compound 9] | 86.5 | No | 5 | 5 | – | −26.9
